Assay results: patent publication US5698411A, “Method for determining activity of enzymes in metabolically active whole cells” (priority 1995, dated 1997)
Numbered stars: 1 amine (or outer) side, 2 acyl side, 3 side chain; on linkers, the order of the positions; unused ones are H or OH. Bridge positions count the residues as written; N and C are the ends. Peptide text beside a SMILES is read from it. I, II: the chains in the order shown. Rhodamine110 = O=C1OC2(c3ccc(N[*:1])cc3Oc3cc(N[*:2])ccc32)c2ccccc21

How the values were obtained:
Format in all cases: cell-based, human
monocytes [1] = assay: aberrant enzyme activities in febrile children, monocytes (Table 7)
lymphocytes [2] = assay: enzyme activity with fluorogenic substrate, normal lymphocytes (Table 3A)
lymphocytes [3] = assay: aberrant enzyme activities in febrile children, lymphocytes (Table 7)
monocytes [4] = assay: enzyme activity with fluorogenic substrate, normal monocytes (Table 3A)
granulocytes [5] = assay: enzyme activity with fluorogenic substrate, normal granulocytes (Table 3A)
granulocytes [6] = assay: aberrant enzyme activities in febrile children, granulocytes (Table 7)
[7] = tested on: metabolically active whole cell; assay: substrate panel in normals and HIV + patients, TB infection (Table 4); parameters: unit not given here
Procedure: A panel of assay compounds are assembled consisting of Ala-aminopeptidase and Lys-aminopeptidase, Dipeptidyl peptidase IV (Ala-Ala)2 rhodamine 110 and Cathepsin D to indicate possible TB infection in AIDS related cases.
A panel Of enzymatic substrates is performed consisting of Ala-aminopeptidase and Lys-aminopeptidase, Dipeptidyl peptidase IV (Ala-Ala)2 rhodamine 110 and Cathepsin D to indicate possible TB infection in AIDS related cases.

[8] = P89 Viral Stomatitis, listed as Val/Lys-M
[9] = P95 Viral Syndrome, listed as Val/Lys-M
[10] = P96 Viral Syndrome, listed as Val/Lys-M
[11] = P97 Pyelonephritis, listed as Val/Lys-M
[12] = P88 Enteritis, listed as Z-Gly/Pro-M

| SMILES | aberrant enzyme activity, MONOS (monocytes [1]; P88 Enteritis) | aberrant enzyme activity, MONOS (monocytes [1]; P89 Viral Stomatitis) | aberrant enzyme activity, MONOS (monocytes [1]; P92 Adenitis) | aberrant enzyme activity, MONOS (monocytes [1]; P97 Pyelonephritis) | aberrant enzyme activity, MONOS (monocytes [1]; P103 Viral Syndrome) | NORMAL LEUKOCYTE ENZYME ACTIVITY LYMPHS Mean (lymphocytes [2]) | aberrant enzyme activity, LYMPHS (lymphocytes [3]; P88 Enteritis) | aberrant enzyme activity, LYMPHS (lymphocytes [3]; P89 Viral Stomatitis) | aberrant enzyme activity, LYMPHS (lymphocytes [3]; P92 Adenitis) | aberrant enzyme activity, LYMPHS (lymphocytes [3]; P97 Pyelonephritis) | aberrant enzyme activity, LYMPHS (lymphocytes [3]; P103 Viral Syndrome) | NORMAL LEUKOCYTE ENZYME ACTIVITY MONOS Mean (monocytes [4]) | NORMAL LEUKOCYTE ENZYME ACTIVITY GRANS Mean (granulocytes [5]) | aberrant enzyme activity, GRANS (granulocytes [6]; P88 Enteritis) | aberrant enzyme activity, GRANS (granulocytes [6]; P89 Viral Stomatitis) | aberrant enzyme activity, GRANS (granulocytes [6]; P92 Adenitis) | aberrant enzyme activity, GRANS (granulocytes [6]; P97 Pyelonephritis) | aberrant enzyme activity, GRANS (granulocytes [6]; P103 Viral Syndrome) | aberrant enzyme activity, MONOS (monocytes [1]; P95 Viral Syndrome) | aberrant enzyme activity, MONOS (monocytes [1]; P96 Viral Syndrome) | other results |
| --- | --- | --- | --- | --- | --- | --- | --- | --- | --- | --- | --- | --- | --- | --- | --- | --- | --- | --- | --- | --- | --- |
| C[C@H](NC(=O)CNC(=O)[C@H](Cc1ccccc1)NC(=O)CN)C(=O)Nc1ccc2c(c1)Oc1cc(NC(=O)[C@H](C)NC(=O)CNC(=O)[C@H](Cc3ccccc3)NC(=O)CN)ccc1C21OC(=O)c2ccccc21 [GFGA, (Gly-Phe-Gly-Ala)2 Rho 110] (I: H-GFGA / II: H-GFGA; linker I:C-II:C via Rhodamine110) | .smallcircle. | .smallcircle. | .smallcircle. | .smallcircle. | .smallcircle. | 0.36 | .smallcircle. | .smallcircle. | .smallcircle. | .smallcircle. | .smallcircle. | 1.01 | 1.00 | .smallcircle. | .smallcircle. | .smallcircle. | .smallcircle. | .smallcircle. | – | – | – |
| N=C(N)NCCC[C@H](N)C(=O)NCC(=O)N[C@@H](CCC(=O)O)C(=O)N[C@@H](CO)C(=O)Nc1ccc2c(c1)Oc1cc(NC(=O)[C@H](CO)NC(=O)[C@H](CCC(=O)O)NC(=O)CNC(=O)[C@@H](N)CCCNC(=N)N)ccc1C21OC(=O)c2ccccc21 (stereo partly drawn) [RGES, (Arg-Gly-Glu-Ser)2 Rho 110] (I: H-RGES / II: H-RGES; linker I:C-II:C via Rhodamine110) | - (>0.25 Decrease over normal range) | .smallcircle. | + (>0.25 Increase over normal range) | .smallcircle. | .smallcircle. | – | .smallcircle. | .smallcircle. | .smallcircle. | .smallcircle. | .smallcircle. | 8.37 | 3.96 | .smallcircle. | + (>0.25 Increase over normal range) | + (>0.25 Increase over normal range) | .smallcircle. | .smallcircle. | .smallcircle. | .smallcircle. | aberrant enzyme activity, MONOS (monocytes [1]; P99 Viral Syndrome): .smallcircle.; aberrant enzyme activity, MONOS (monocytes [1]; P101 Fever -- Unknown Origin): - (>0.25 Decrease over normal range); aberrant enzyme activity, MONOS (monocytes [1]; P102 UTI): .smallcircle.; aberrant enzyme activity, LYMPHS (lymphocytes [3]; P95 Viral Syndrome): .smallcircle.; aberrant enzyme activity, LYMPHS (lymphocytes [3]; P96 Viral Syndrome): + (>0.25 Increase over normal range); aberrant enzyme activity, LYMPHS (lymphocytes [3]; P99 Viral Syndrome): .smallcircle.; aberrant enzyme activity, LYMPHS (lymphocytes [3]; P101 Fever -- Unknown Origin): .smallcircle.; aberrant enzyme activity, LYMPHS (lymphocytes [3]; P102 UTI): .smallcircle.; aberrant enzyme activity, GRANS (granulocytes [6]; P95 Viral Syndrome): .smallcircle.; aberrant enzyme activity, GRANS (granulocytes [6]; P96 Viral Syndrome): .smallcircle.; aberrant enzyme activity, GRANS (granulocytes [6]; P99 Viral Syndrome): .smallcircle.; aberrant enzyme activity, GRANS (granulocytes [6]; P101 Fever -- Unknown Origin): .smallcircle.; aberrant enzyme activity, GRANS (granulocytes [6]; P102 UTI): .smallcircle. |
| CC(C)[C@H](N)C(=O)N[C@@H](CCCCN)C(=O)Nc1ccc2c(c1)Oc1cc(NC(=O)[C@H](CCCCN)NC(=O)[C@@H](N)C(C)C)ccc1C21OC(=O)c2ccccc21 [VK, (Val-Lys)2 Rho 110] | - (>0.25 Decrease over normal range) | - (>0.25 Decrease over normal range) | .smallcircle. | .smallcircle. | + (>0.25 Increase over normal range) | 1.87 | .smallcircle. | .smallcircle. | .smallcircle. | .smallcircle. | .smallcircle. | – | 5.10 | - (>0.25 Decrease over normal range) | - (>0.25 Decrease over normal range) | .smallcircle. | + (>0.25 Increase over normal range) | .smallcircle. | .smallcircle. | .smallcircle. | MEAN DELTA FL ([7]; HIV + PATIENTS): 17.7; MEAN DELTA FL ([7]; NORMALS): 22.7; aberrant enzyme activity, MONOS (monocytes [1]; P99 Viral Syndrome): + (>0.25 Increase over normal range); aberrant enzyme activity, MONOS (monocytes [1]; P101 Fever -- Unknown Origin): .smallcircle.; aberrant enzyme activity, MONOS (monocytes [1]; P102 UTI): - (>0.25 Decrease over normal range); aberrant enzyme activity, LYMPHS (lymphocytes [3]; P95 Viral Syndrome): - (>0.25 Decrease over normal range); aberrant enzyme activity, LYMPHS (lymphocytes [3]; P96 Viral Syndrome): .smallcircle.; aberrant enzyme activity, LYMPHS (lymphocytes [3]; P99 Viral Syndrome): + (>0.25 Increase over normal range); aberrant enzyme activity, LYMPHS (lymphocytes [3]; P101 Fever -- Unknown Origin): .smallcircle.; aberrant enzyme activity, LYMPHS (lymphocytes [3]; P102 UTI): .smallcircle.; aberrant enzyme activity, GRANS (granulocytes [6]; P95 Viral Syndrome): - (>0.25 Decrease over normal range); aberrant enzyme activity, GRANS (granulocytes [6]; P96 Viral Syndrome): .smallcircle.; aberrant enzyme activity, GRANS (granulocytes [6]; P99 Viral Syndrome): + (>0.25 Increase over normal range); aberrant enzyme activity, GRANS (granulocytes [6]; P101 Fever -- Unknown Origin): .smallcircle.; aberrant enzyme activity, GRANS (granulocytes [6]; P102 UTI): .smallcircle. |
| CC(C)[C@H](N)C(=O)N[C@@H](CCCCN)C(=O)Nc1ccc2c(c1)Oc1cc(NC(=O)[C@H](CCCCN)NC(=O)[C@@H](N)C(C)C)ccc1C21OC(=O)c2ccccc21 [VK-M, (Val-Lys)2 Rho 110 (modified)] | - (>0.25 Decrease over normal range) | – | – | .smallcircle. | – | 2.05 | .smallcircle. | .smallcircle. | .smallcircle. | – | .smallcircle. | 43.37 | 4.31 | - (>0.25 Decrease over normal range) | – | .smallcircle. | – | .smallcircle. | .smallcircle. | .smallcircle. | aberrant enzyme activity, MONOS (monocytes [1]; [8]): .smallcircle.; aberrant enzyme activity, MONOS (monocytes [1]; P92 Adenitis, listed as Val/Lys-M): - (>0.25 Decrease over normal range); aberrant enzyme activity, MONOS (monocytes [1]; P101 Fever -- Unknown Origin, listed as Val/Lys-M): - (>0.25 Decrease over normal range); aberrant enzyme activity, MONOS (monocytes [1]; P102 UTI): - (>0.25 Decrease over normal range); aberrant enzyme activity, MONOS (monocytes [1]; P103 Viral Syndrome, listed as Val/Lys-M): .smallcircle.; aberrant enzyme activity, LYMPHS (lymphocytes [3]; [9]): + (>0.25 Increase over normal range); aberrant enzyme activity, LYMPHS (lymphocytes [3]; [10]): + (>0.25 Increase over normal range); aberrant enzyme activity, LYMPHS (lymphocytes [3]; [11]): + (>0.25 Increase over normal range); aberrant enzyme activity, LYMPHS (lymphocytes [3]; P101 Fever -- Unknown Origin): .smallcircle.; aberrant enzyme activity, LYMPHS (lymphocytes [3]; P102 UTI): .smallcircle.; aberrant enzyme activity, GRANS (granulocytes [6]; [8]): .smallcircle.; aberrant enzyme activity, GRANS (granulocytes [6]; [9]): + (>0.25 Increase over normal range); aberrant enzyme activity, GRANS (granulocytes [6]; [10]): + (>0.25 Increase over normal range); aberrant enzyme activity, GRANS (granulocytes [6]; [11]): .smallcircle.; aberrant enzyme activity, GRANS (granulocytes [6]; P101 Fever -- Unknown Origin): .smallcircle.; aberrant enzyme activity, GRANS (granulocytes [6]; P102 UTI, listed as Val/Lys-M): - (>0.25 Decrease over normal range) |
| O=C(NCC(=O)N1CCC[C@H]1C(=O)Nc1ccc2c(c1)Oc1cc(NC(=O)[C@@H]3CCCN3C(=O)CNC(=O)OCc3ccccc3)ccc1C21OC(=O)c2ccccc21)OCc1ccccc1 [Z-GP-M, (carbobenzyloxycarbonyl-Gly-Pro)2 Rho 110 (modified)] | – | .smallcircle. | - (>0.25 Decrease over normal range) | .smallcircle. | .smallcircle. | 53.74 | – | - (>0.25 Decrease over normal range) | - (>0.25 Decrease over normal range) | – | - (>0.25 Decrease over normal range) | 119.81 | 130.62 | – | – | - (>0.25 Decrease over normal range) | .smallcircle. | .smallcircle. | – | – | aberrant enzyme activity, MONOS (monocytes [1]; [12]): - (>0.25 Decrease over normal range); aberrant enzyme activity, LYMPHS (lymphocytes [3]; [12]): - (>0.25 Decrease over normal range); aberrant enzyme activity, LYMPHS (lymphocytes [3]; P97 Pyelonephritis, listed as Z-Gly/Pro-M): - (>0.25 Decrease over normal range); aberrant enzyme activity, GRANS (granulocytes [6]; [12]): - (>0.25 Decrease over normal range) |
| C[C@@H](O)[C@H](NC(=O)OCc1ccccc1)C(=O)N1CCC[C@H]1C(=O)Nc1ccc2c(c1)Oc1cc(NC(=O)[C@@H]3CCCN3C(=O)[C@@H](NC(=O)OCc3ccccc3)[C@@H](C)O)ccc1C21OC(=O)c2ccccc21 [Z-TP6.5M] | – | – | - (>0.25 Decrease over normal range) | .smallcircle. | .smallcircle. | 20.62 | – | – | - (>0.25 Decrease over normal range) | .smallcircle. | .smallcircle. | 45.70 | 55.07 | – | – | - (>0.25 Decrease over normal range) | .smallcircle. | .smallcircle. | – | – | – |
